The text below walks through data of patent US9365522B2, “Pyrazole amide derivative” (AMGEN INC., priority 2015, dated 2016).

Molecules are shown by their SMILES.

This experiment deals with T1, ligand binding domain of human ROR gamma (Homo sapiens, UniProt P51449).
T1 construct: NM_001001523; expressed in transfected cells; host or cells: HEK293T
T1 sequence (P51449 247-497 isoform P51449-2): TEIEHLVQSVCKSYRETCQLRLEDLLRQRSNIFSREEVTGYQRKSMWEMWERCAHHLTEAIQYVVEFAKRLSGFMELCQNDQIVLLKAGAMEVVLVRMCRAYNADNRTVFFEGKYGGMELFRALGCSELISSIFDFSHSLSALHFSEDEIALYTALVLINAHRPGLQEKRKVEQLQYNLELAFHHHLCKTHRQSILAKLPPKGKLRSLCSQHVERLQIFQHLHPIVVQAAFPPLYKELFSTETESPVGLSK
In words: ROR gamma reporter gene assay (GAL4-RORγ LBD luciferase, Dual-Glo). It counts as cell-based. The note with it: HEK293T cells transfected with pM-ROR gamma, 8 concentrations 3.5 nM to 10.5 μM, 24 h incubation; read-out: result (pIC50, inhibition of RORγ transcriptional activity) (converted). The method in brief:
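Inhibition of RORγ-driven transcription was measured in HEK293T cells expressing a GAL4 fusion of the human RORγ LBD (aa 247-497), with renilla luciferase as internal control. Cells in 10% charcoal-stripped serum received compound (3.5 nM–10.5 μM) for 24 h.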
For `C[C@]1(C(=O)O)CC[C@H](n2ncc(C(=O)N(CC(=O)c3c(Cl)cc(Cl)cc3Cl)CC3(F)CCCC3)c2C(F)(F)F)CC1` [Example 225, trans-4-(4-((1-fluorocyclopentyl)methyl-(2-oxo-2-(2,4,6-trichlorophenyl)ethyl)carbamoyl)-5-(trifluoromethyl)pyrazol-1-yl)-1-methylcyclohexane-1-carboxylic acid], the IC50 was 2950 pM.

As to `Cc1cc(Cl)c(C(=O)CN(CC23CCC(C)(CC2)O3)C(=O)c2cnn([C@H]3CC[C@](C)(C(=O)O)CC3)c2C(F)(F)F)c(Cl)c1` [Example 226, trans-4-(4-((2-(2,6-dichloro-4-methylphenyl)-2-oxoethyl)-((1-methyl-7-oxabicyclo[2.2.1]heptan-4-yl)methyl)carbamoyl)-5-(trifluoromethyl)pyrazol-1-yl)-1-methylcyclohexane-1-carboxylic acid], the IC50 was 3390 pM. For `Cc1cc(Cl)c(C(=O)CN(C(=O)c2cnn([C@H]3CC[C@](C)(C(=O)O)CC3)c2C(F)(F)F)C2CCC(C)(C)CC2)c(Cl)c1` [Example 227, trans-4-(4-((2-(2,6-dichloro-4-methylphenyl)-2-oxoethyl)-(4,4-dimethylcyclohexyl)carbamoyl)-5-(trifluoromethyl)pyrazol-1-yl)-1-methylcyclohexane-1-carboxylic acid], the IC50 was 3980 pM.

In the case of `O=C(CN(Cc1ccc(F)cc1)C(=O)c1cnn([C@H]2CC[C@H](C(=O)O)CC2)c1CC(F)(F)F)c1c(Cl)cncc1Cl` [Example 228, trans-4-(4-((2-(3,5-dichloropyridin-4-yl)-2-oxoethyl)-((4-fluorophenyl)methyl)carbamoyl)-5-(2,2,2-trifluoroethyl)pyrazol-1-yl)cyclohexane-1-carboxylic acid], the IC50 is 195000 pM. Consider `CC1(C)CCC(N(CC(=O)c2c(Cl)cncc2Cl)C(=O)c2cnn([C@H]3CC[C@](C)(C(=O)O)CC3)c2C(F)(F)F)CC1` [Example 229, trans-4-(4-((2-(3,5-dichloropyridin-4-yl)-2-oxoethyl)-(4,4-dimethylcyclohexyl)carbamoyl)-5-(trifluoromethyl)pyrazol-1-yl)-1-methylcyclohexane-1-carboxylic acid], for which the IC50 is 12900 pM. With `CC1(C)CCC(N(CC(=O)c2c(Cl)cc(F)cc2Cl)C(=O)c2cnn(C34CCC(C(=O)O)(CC3)CC4)c2C(F)(F)F)CC1` [Example 230, 4-(4-((2-(2,6-dichloro-4-fluorophenyl)-2-oxoethyl)-(4,4-dimethylcyclohexyl)carbamoyl)-5-(trifluoromethyl)pyrazol-1-yl)bicyclo[2.2.2]octane-1-carboxylic acid], the IC50 was 6610 pM.

On to `CC1(C)CCC(N(CC(=O)c2c(Cl)cc(Cl)cc2Cl)C(=O)c2cnn(C34CCC(C(=O)O)(CC3)CC4)c2C(F)(F)F)CC1` [Example 231, 4-(4-((4,4-dimethylcyclohexyl)-(2-oxo-2-(2,4,6-trichlorophenyl)ethyl)carbamoyl)-5-(trifluoromethyl)pyrazol-1-yl)bicyclo[2.2.2]octane-1-carboxylic acid], for which the IC50 is 10700 pM.

For the compound `COc1cccc(Cl)c1C(=O)CN(C(=O)c1cnn([C@H]2CC[C@](C)(C(=O)O)CC2)c1C(F)(F)F)[C@H]1C[C@@H]2[C@H](C1)C2(C)C` [Example 232, trans-4-(4-((2-(2-chloro-6-methoxyphenyl)-2-oxoethyl)-((1R,3r,5S)-6,6-dimethyl-3-bicyclo(3.1.0)hexanyl)carbamoyl)-5-(trifluoromethyl)pyrazol-1-yl)-1-methylcyclohexane-1-carboxylic acid], the IC50 was 17000 pM.

`CC(C)(C)CN(CC(=O)c1c(Cl)cncc1Cl)C(=O)c1cnn(C23CCC(C(=O)O)(CC2)CC3)c1C(F)(F)F` [Example 233, 4-(4-((2-(3,5-dichloropyridin-4-yl)-2-oxoethyl)-(2,2-dimethylpropyl)carbamoyl)-5-(trifluoromethyl)pyrazol-1-yl)bicyclo[2.2.2]octane-1-carboxylic acid]: the IC50 is 15800 pM. For `C[C@]1(C(=O)O)CC[C@H](n2ncc(C(=O)N(CC(=O)c3c(Cl)cc(Cl)cc3Cl)CC3CC4(CC4)C3)c2C(F)(F)F)CC1` [Example 234, trans-4-(4-((2-oxo-2-(2,4,6-trichlorophenyl)ethyl)-(spiro[2.3]hexan-5-ylmethyl)carbamoyl)-5-(trifluoromethyl)pyrazol-1-yl)-1-methylcyclohexane-1-carboxylic acid], the IC50 was 10000 pM. With `C[C@]1(C(=O)O)CC[C@H](n2ncc(C(=O)N(CC(=O)c3c(Cl)cccc3C(F)(F)F)CC3CC4(CC4)C3)c2C(F)(F)F)CC1` [Example 235, trans-4-(4-((2-(2-chloro-6-(trifluoromethyl)phenyl)-2-oxoethyl)-(spiro[2.3]hexan-5-ylmethyl)carbamoyl)-5-(trifluoromethyl)pyrazol-1-yl)-1-methylcyclohexane-1-carboxylic acid], the IC50 was 13200 pM.

Take `Cc1cc(Cl)c(C(=O)CN(C(=O)c2cnn(C34CCC(C(=O)O)(CC3)CC4)c2C(F)(F)F)C2CCC(C)(C)CC2)c(Cl)c1` [Example 236, 4-(4-((2-(2,6-dichloro-4-methylphenyl)-2-oxoethyl)-(4,4-dimethylcyclohexyl)carbamoyl)-5-(trifluoromethyl)pyrazol-1-yl)bicyclo[2.2.2]octane-1-carboxylic acid]: the IC50 was 10500 pM. Turning to `Cc1cc(Cl)c(C(=O)CN(CC2CC(C)(C)C2)C(=O)c2cnn(C34CCC(C(=O)O)(CC3)CC4)c2C(F)(F)F)c(Cl)c1` [Example 237, 4-(4-((2-(2,6-dichloro-4-methylphenyl)-2-oxoethyl)-((3,3-dimethylcyclobutyl)methyl)carbamoyl)-5-(trifluoromethyl)pyrazol-1-yl)bicyclo[2.2.2]octane-1-carboxylic acid], the IC50 was under 3470 pM. Consider `Cc1cc(Cl)c(C(=O)CN(CC2CC(C)(C)C2)C(=O)c2cnn([C@H]3CC[C@](C)(C(=O)O)CC3)c2C(F)(F)F)c(Cl)c1` [Example 238, trans-4-(4-((2-(2,6-dichloro-4-methylphenyl)-2-oxoethyl)-((3,3-dimethylcyclobutyl)methyl)carbamoyl)-5-(trifluoromethyl)pyrazol-1-yl)-1-methylcyclohexane-1-carboxylic acid], for which the IC50 is 4370 pM. Take `CC1(C)CCC(CN(CC(=O)c2c(Cl)cc(Cl)cc2Cl)C(=O)c2cnn([C@H]3CC[C@](C)(C(=O)O)CC3)c2C(F)(F)F)CC1` [Example 239, trans-4-(4-((4,4-dimethylcyclohexyl)methyl-(2-oxo-2-(2,4,6-trichlorophenyl)ethyl)carbamoyl)-5-(trifluoromethyl)pyrazol-1-yl)-1-methylcyclohexane-1-carboxylic acid]: the IC50 was under 3470 pM. Regarding `CC1(C)[C@@H]2C[C@H](N(CC(=O)c3c(Cl)cc(F)cc3Cl)C(=O)c3cnn(C45CCC(C(=O)O)(CC4)CC5)c3C(F)(F)F)C[C@@H]21` [Example 240, 4-(4-((2-(2,6-dichloro-4-fluorophenyl)-2-oxoethyl)-((1R,3r,5S)-6,6-dimethyl-3-bicyclo[3.1.0]hexanyl)carbamoyl)-5-(trifluoromethyl)pyrazol-1-yl)bicyclo(2.2.2)octane-1-carboxylic acid], the IC50 is 5500 pM.
